# Experimental data as given in BindingDB's records for doi:10.7270/Q2CV4GCW (The Scripps Research Institute Molecular Screening Center, 2014).
# Target: T1, Group 3 secretory phospholipase A2 (Homo sapiens, UniProt Q9NZ20)
# T1 sequence (Q9NZ20 whole entry): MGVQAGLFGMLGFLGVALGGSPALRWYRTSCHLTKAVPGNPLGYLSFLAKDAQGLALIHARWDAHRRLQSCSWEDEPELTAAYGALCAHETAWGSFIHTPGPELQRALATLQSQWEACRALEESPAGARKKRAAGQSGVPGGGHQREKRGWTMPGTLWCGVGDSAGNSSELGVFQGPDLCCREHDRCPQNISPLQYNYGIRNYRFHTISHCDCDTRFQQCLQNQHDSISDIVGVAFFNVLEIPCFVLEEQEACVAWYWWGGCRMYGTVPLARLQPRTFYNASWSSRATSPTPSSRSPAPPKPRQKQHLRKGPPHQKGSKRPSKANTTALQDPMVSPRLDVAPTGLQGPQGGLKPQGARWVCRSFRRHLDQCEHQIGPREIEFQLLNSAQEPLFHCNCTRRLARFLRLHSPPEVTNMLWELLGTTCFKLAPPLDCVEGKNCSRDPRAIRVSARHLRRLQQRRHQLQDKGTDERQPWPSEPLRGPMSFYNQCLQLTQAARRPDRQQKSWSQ
# Assay: HGIII-sPLA2 enzyme inhibition potency – biochemical, QFRET, IC50, dose response (AID 743457)
row,SMILES,IC50
1,Cc1noc(/C=C/N(C)C)c1S(=O)(=O)N1CCCC(C(=O)NCc2ccco2)C1 (stereo not drawn),122 µM
2,COCCN1C(=O)/C(=C/c2c(OC)cc(OC)cc2OC)C(=O)N(c2ccccc2)C1=O,100 µM
3,NS(=O)(=O)c1ccc(Nc2nc3ccccc3nc2NS(=O)(=O)c2cccc([N+](=O)[O-])c2)cc1,42.5 µM
4,Cc1c(Cl)cccc1N=C(S)NCCc1ccc(S(N)(=O)=O)cc1,122 µM
5,"COc1ccc(C=NNC(=O)CSc2n[nH]c(=O)[nH]c2=O)cc1 [2-[[3,5-bis(oxidanylidene)-2H-1,2,4-triazin-6-yl]sulfanyl]-N-[(4-methoxyphenyl)methylideneamino]ethanamide]",48 µM
6,"COC(=O)CCC(=O)OC1(C)C(=O)C2=CN(CCCOC(C)C)C(c3ccc(OC)cc3)=CC2=C(Br)C1=O (stereo not drawn) [4-O-[5-bromo-3-(4-methoxyphenyl)-7-methyl-6,8-dioxo-2-(3-propan-2-yloxypropyl)isoquinolin-7-yl] 1-O-methyl butanedioate]",122 µM
7,"Cc1n[nH]c(N=Nc2ccc(O)cc2)n1 [4-[(5-methyl-1H-1,2,4-triazol-3-yl)hydrazinylidene]cyclohexa-2,5-dien-1-one]",20.5 µM
8,Cc1ccc(O)c(-c2cc(C(=O)Nc3ccc(S(=O)(=O)Nc4nccc(C)n4)cc3)[nH]n2)c1 [5-(2-Hydroxy-5-methyl-phenyl)-2H-pyrazole-3-carboxylic acid [4-(4-methyl-pyrimidin-2-ylsulfamoyl)-phenyl]-amide],122 µM
9,COc1cc(/C=C(/C#N)c2nc3ccccc3[nH]2)ccc1OCc1ccc(C(=O)O)o1 [5-[[4-[(Z)-2-(1H-benzimidazol-2-yl)-2-cyanoethenyl]-2-methoxyphenoxy]methyl]-2-furancarboxylic acid],66.3 µM
10,"CSCc1nc2sc(C(=O)Nc3nc(C)cs3)c(C)c2c(=O)[nH]1 [5-methyl-2-(methylsulfanylmethyl)-N-(4-methyl-1,3-thiazol-2-yl)-4-oxo-3H-thieno[2,3-d]pyrimidine-6-carboxamide]",122 µM
11,O=C1c2ccccc2SC1/C=N/c1cc([N+](=O)[O-])ccc1O (stereo not drawn) [(2Z)-2-[[(5-nitro-2-oxidanyl-phenyl)amino]methylidene]-1-benzothiophen-3-one],122 µM
12,CCN(CC)c1nc2c3c(nc4c(c3c1C#N)CC(=O)N4c1ccc(Cl)cc1)NC(C)=N2 [MLS000389664],25 µM
13,CCCCn1c(NS(=O)(=O)c2ccccc2)c(C(=O)OCC)c2nc3ccccc3nc21 [MLS000589117],40.6 µM
14,Cc1ccc(-n2ncc3c(NNC(=O)c4ccco4)ncnc32)cc1C [MLS001235991],122 µM
15,"O=C1C([N+](=O)[O-])=CC(Cl)=CC1/C=N/NC(=O)C(O)(c1ccccc1)c1ccccc1 (stereo not drawn) [N''''-[(E)-(3-chloro-5-nitro-6-oxocyclohexa-2,4-dien-1-ylidene)methyl]-2-hydroxy-2,2-diphenylacetohydrazide]",32.5 µM
16,"C=CCSC(N)=NN=CC1C=C(Br)C=C([N+](=O)[O-])C1=O (stereo not drawn) [N''-[[(E)-(3-bromo-5-nitro-6-oxo-1-cyclohexa-2,4-dienylidene)methyl]amino]carbamimidothioic acid prop-2-enyl ester]",40.6 µM
17,Cc1ccc(C(=O)Nc2nc(C(C)(C)C)cs2)s1 [N-(4-tert-butyl-2-thiazolyl)-5-methyl-2-thiophenecarboxamide],122 µM
18,Cc1ccc(C(=O)n2c3ccccc3c3ccccc32)cc1 [carbazol-9-yl-(4-methylphenyl)methanone],30.3 µM
